Source: article PMC12298827, “Subchronic Toxicities of Four Per- and Polyfluoroalkyl Substances (PFASs) by Oral Exposure in Sprague–Dawley Rats” (Toxics, 2025)
Marks after values point to notes of the source that are not given here.

System: male and female Sprague–Dawley rats
Assay: 90-day subchronic oral gavage toxicity study
Format: in vivo, rat
Protocol: Subchronic (90-day) studies were performed in accordance with current U.S. EPA’s Toxic Substances Control Act Good Laboratory Practice (GLP) Standards, with the following two general exceptions to the GLP guidelines: Analysis of the dose formulations was conducted according to RTI-approved Standard Operating Procedures, and corn oil (the vehicle) was not characterized (certificate of analysis from the vendor is available in the appendices to the final reports). Male and female Sprague–Dawley rats (five dose levels plus a control, n = 10/sex/dose group, corn oil vehicle dose volume of 3 mL/kg; oral gavage) were used in these studies, and the rats were euthanized on SD 91. The dose levels for PFHI were 0, 12.5, 25, 50, 100, and 200 mg/kg-day. The dose levels for MHFPK were 0, 18.8, 37.5, 75, 150, and 300 mg/kg-day. The dose levels for PFNAC were 0, 0.1, 0.3, 1.0, 3.0, and 10 mg/kg-day for male rats and 0, 0.3, 1.0, 3.0, 10, and 30 mg/kg-day for female rats. For CTFPA, the dose levels were 0, 1.9, 3.8. 7.5, 15, and 30 mg/kg-day for male rats and 0, 6.3, 12.5, 25, 50, and 100 mg/kg-day for female rats. For each PFAS, three batches of dosing solution were prepared. The time between the batch preparation of the dosing solutions ranged between 29 and 39 days. Blood samples were collected from all the rats at termination for serum chemistry, hematology, coagulation, and the analysis of the parent PFAS chemical in the plasma. In vivo data collection and further detail on the endpoints examined postmortem are described below.
The rats were observed twice daily for morbidity and mortality throughout the study period. At least once prior to randomization to test groups and weekly thereafter, the rats were physically examined, and bodyweights were obtained. Feed consumption was quantified weekly starting on SD 1.
Neurotoxicity was evaluated using the functional observational battery (FOB) and measuring locomotor activity (LMA) 2–4 h post dosing on SDs 78–80 and 80–84, respectively. For both the 14- and 90-day studies, an ophthalmologic examination was conducted prior to randomization and near the end of the study, using indirect ophthalmoscopy and slit–lamp biomicroscopy (as needed) after the administration of a mydriatic solution.
Hematology, biochemistry, and coagulation endpoints were measured at the termination of the study. A Siemens Advia 2120i hematology analyzer (Siemens Healthineers, Erlangen, Germany) was used to measure (or calculate) the parameters related to the complete blood count, leukocyte differential count, and reticulocyte count. The hematology parameters are listed and described in Table 2. The prothrombin time […] and activated partial thromboplastin time (APTT) were measured using an Instrumentation Laboratory (Bedford, MA, USA) ACL Elite Pro coagulation analyzer (laser–nephelometric centrifugal method).
At necropsy, the rats were visually examined for external abnormalities and organ weights (absolute and relative to the BW and brain weight), which were recorded (paired organs weighed together). The tissues were preserved in 10% neutral buffered formalin (NBF), except for the ocular tissues, testes, and epididymides, which were preserved in modified Davidson’s fixative and later transferred to 10% NBF. Bone marrow smears were prepared from the femurs, and the slides were air-dried, fixed in methanol, stained, and stored at room temperature for possible future evaluation. The preserved tissues were embedded in paraffin, sectioned, stained with hematoxylin and eosin, and examined by a board-certified veterinary pathologist.
Statistical analysis was performed using Provantis™ Version 10 or greater (Instem LSS, Limited; Stone, Staffordshire, UK). Differences among the treatment groups compared to the control were evaluated using one-way analysis of variance (ANOVA) if the underlying assumptions of a normal distribution (Shapiro–Wilk test) and the homogeneity of the variance (Levene’s test) were satisfied. […]

`C=CC(=O)OCC(F)(F)C(F)(F)C(F)(F)C(F)(F)C(F)(F)C(F)(F)C(F)(F)C(F)F` [PFNAC, 1H,1H,9H-Perfluorononyl acrylate] was tested, and the “Bodyweight (BW) and bodyweight gain” value (90-day, both sexes, all doses) was “None in females; effects in males at 10 mg/kg-day were not considered adverse because they did not persist through the study (days 8–29)”, the Clinical observations (90-day, both sexes, all doses) was “None” and the Coagulation endpoints (90-day, both sexes, all doses) was “Males at ≥1 mg/kg-day, mildly shortened APTT, not considered as biologically significant”. For the same compound, the Feed consumption (90-day, both sexes, all doses) was “Increased in males and females in some dose groups during some time periods, not considered as adverse (not persistent or consistent although sometimes statistically significant)”, the Functional observational battery (90-day, both sexes, all doses) was “Some changes, all considered as incidental and non-adverse” and the Gross lesions (90-day, both sexes, all doses) was “None considered as PFNAC related”. The Hematology (90-day, both sexes, all doses) was “No changes in females; Males—minimal decreases in red cell mass (HGB, HCT, and RBC) at ≥0.1 mg/kg-day, minimal decreases in absolute reticulocytes at ≥1 mg/kg and from minimal to mild decreases in neutrophils and eosinophils at ≥0.1 mg/kg-day ^2”, the Histopathology (90-day, both sexes, all doses) was “The kidney and liver ^4 of males at ≥0.3 mg/kg-day and females at 30 mg/kg-day; the thyroid gland in males” and the Locomotor activity (90-day, both sexes, all doses) was “No effects”. The Morbidity and mortality (90-day, both sexes, all doses) was “None”, the Ophthalmology (90-day, both sexes, all doses) was “No ocular lesions” and the Organ weight changes (90-day, both sexes, all doses) was “Mean absolute and/or relative organ weight increases in the liver and kidneys of males at ≥0.3 mg/kg-day and females at ≥3 mg/kg-day”. The “BMD10, absolute kidney weight increase” value (female) was 13.4 mg/kg-day, the “BMD10, absolute liver weight increase” value (female) was 11.2 mg/kg-day and the “BMD10, relative kidney weight increase” value (female) was 6.0 mg/kg-day. For the same compound, the “BMD10, relative liver weight increase” value (female) was 12.8 mg/kg-day, the “BMDL, absolute kidney weight increase” value (female) was 2.68 mg/kg-day and the “BMDL, absolute liver weight increase” value (female) was 8.8 mg/kg-day. The “BMDL, relative kidney weight increase” value (female) was 0.8 * mg/kg-day, the “BMDL, relative liver weight increase” value (female) was 10.1 mg/kg-day and the “LOEL, absolute kidney weight increase” value (female) was 10 mg/kg-day. The “LOEL, absolute liver weight increase” value (female) was 30 mg/kg-day, the “LOEL, relative kidney weight increase” value (female) was 3 mg/kg-day and the “LOEL, relative liver weight increase” value (female) was 30 mg/kg-day. The “NOEL, absolute kidney weight increase” value (female) was 3 mg/kg-day, the “NOEL, absolute liver weight increase” value (female) was 10 mg/kg-day and the “NOEL, relative kidney weight increase” value (female) was 1 mg/kg-day. The “NOEL, relative liver weight increase” value (female) was 10 mg/kg-day, the A/G (female, 0.1 mg/kg-day) was 1.11±0.08 ratio and the ALB (female, 0.1 mg/kg-day) was 4.36 ± 0.22 g/dL. For the same compound, the ALPi (female, 0.1 mg/kg-day) was 78.0±24.1 U/L, the BUN (female, 0.1 mg/kg-day) was 15.7 ± 1.3 mg/dL and the CHOL (female, 0.1 mg/kg-day) was 102.1 ± 16.7 mg/dL. For the same compound, the GLOB (female, 0.1 mg/kg-day) was 3.93 ± 0.12 g/dL, the GLUC (female, 0.1 mg/kg-day) was 99.4 ± 11.9 mg/dL and the “% BW Gain” value (female, 0.3 mg/kg-day) was 47.16%. The “% Diff, % BW Gain” value (female, 0.3 mg/kg-day) was -3.35%, the “% Diff, Total BW change” value (female, 0.3 mg/kg-day) was -2.86% and the “% Diff, Total Food Consumed” value (female, 0.3 mg/kg-day) was 4.16%. For the same compound, the A/G (female, 0.3 mg/kg-day) was 1.10±0.06 ratio, the ABEOS (female, 0.3 mg/kg-day) was 0.089±0.035 K/µL and the ABNEUT (female, 0.3 mg/kg-day) was 1.725±1.311 K/µL. The ABRETi (female, 0.3 mg/kg-day) was 188.23±26.07 10^9/L, the ALB (female, 0.3 mg/kg-day) was 4.44 ± 0.33 g/dL and the ALPi (female, 0.3 mg/kg-day) was 54.8±10.4 U/L. The APTT (female, 0.3 mg/kg-day) was 21.25 s, the BUN (female, 0.3 mg/kg-day) was 16.8 ± 3.3 mg/dL and the CHOL (female, 0.3 mg/kg-day) was 99.7 ± 15.0 mg/dL. For the same compound, the GLOB (female, 0.3 mg/kg-day) was 4.05 ± 0.18 g/dL, the GLUC (female, 0.3 mg/kg-day) was 104.6 ± 13.0 mg/dL and the HCT (female, 0.3 mg/kg-day) was 41.35±1.64%. For the same compound, the HGB (female, 0.3 mg/kg-day) was 13.21 ± 0.43 g/dL, the “Kidney Weight” value (female, 0.3 mg/kg-day) was 1.74 g and the “Kidney/Body Weight” value (female, 0.3 mg/kg-day) was 0.59%. The “Kidney/Brain Weight” value (female, 0.3 mg/kg-day) was 91.4%, the “Liver Weight” value (female, 0.3 mg/kg-day) was 7.76 g and the “Liver/Body Weight” value (female, 0.3 mg/kg-day) was 2.62%. The “Liver/Brain Weight” value (female, 0.3 mg/kg-day) was 408%, the MPV (female, 0.3 mg/kg-day) was 7.62 ± 0.63 fL and the PT (female, 0.3 mg/kg-day) was 13.79 s. The RBC (female, 0.3 mg/kg-day) was 7.177±0.276 M/µL, the “Total BW change” value (female, 0.3 mg/kg-day) was 98.25 g and the “Total Food Consumed” value (female, 0.3 mg/kg-day) was 1466 g. For the same compound, the “% BW Gain” value (female, 1.0 mg/kg-day) was 45.99%, the “% Diff, % BW Gain” value (female, 1.0 mg/kg-day) was -5.73% and the “% Diff, Total BW change” value (female, 1.0 mg/kg-day) was -6.27%. The “% Diff, Total Food Consumed” value (female, 1.0 mg/kg-day) was 2.64%, the A/G (female, 1.0 mg/kg-day) was 1.13±0.06 ratio and the ABEOS (female, 1.0 mg/kg-day) was 0.086±0.028 K/µL. The ABNEUT (female, 1.0 mg/kg-day) was 1.468±0.616 K/µL, the ABRETi (female, 1.0 mg/kg-day) was 180.48±14.00 10^9/L and the ALB (female, 1.0 mg/kg-day) was 4.43 ± 0.26 g/dL. The ALPi (female, 1.0 mg/kg-day) was 52.1±13.7 U/L, the APTT (female, 1.0 mg/kg-day) was 20.13 s and the BUN (female, 1.0 mg/kg-day) was 13.9 ± 2.0 mg/dL. It also gave a CHOL (female, 1.0 mg/kg-day) of 94.3 ± 18.7 mg/dL, a GLOB (female, 1.0 mg/kg-day) of 3.94 ± 0.19 g/dL and a GLUC (female, 1.0 mg/kg-day) of 100.9 ± 12.7 mg/dL. For the same compound, the HCT (female, 1.0 mg/kg-day) was 41.13±1.98% and the HGB (female, 1.0 mg/kg-day) was 13.19 ± 0.73 g/dL.
